# Key:
# Format in all cases: biochemical
# [1] = biological target: T1, recombinant human ARG1 (Homo sapiens, UniProt P05089); assay: Arginase enzymatic assay in vitro, recombinant human ARG1 (colorimetric urea detection); settings: recombinant human arginase 1; read-out: IC50 Inh rhARG1
# T1 construct: purchased R&D System 5868-AR-010
# T1 sequence (P05089 1-322): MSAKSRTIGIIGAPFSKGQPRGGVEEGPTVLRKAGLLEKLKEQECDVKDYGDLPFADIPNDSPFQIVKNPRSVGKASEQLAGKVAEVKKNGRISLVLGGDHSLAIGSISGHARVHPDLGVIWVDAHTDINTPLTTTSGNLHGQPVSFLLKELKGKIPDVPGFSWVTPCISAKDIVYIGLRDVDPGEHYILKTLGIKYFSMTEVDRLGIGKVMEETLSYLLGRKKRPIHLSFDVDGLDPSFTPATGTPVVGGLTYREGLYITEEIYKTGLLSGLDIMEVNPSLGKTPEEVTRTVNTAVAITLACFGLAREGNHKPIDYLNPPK
# From the text: (§1) Arginase catalyzes the hydrolysis of L-arginine into L-ornithine and urea. Urea amount produced by this reaction can be detected using a colorimetric assay and used as an indirect measurement of arginase activity. An adapted protocol from (Baggio, R., et al., J Pharmacol Exp Ther, 1999. 290(3): p. 1409-16) was used for the testing the ability of exemplary compounds of the invention to inhibit arginase enzymes from a variety of sources including recombinant human ARG1 and 2, lysates of human red blood cells (RBC) and intact murine macrophages, as described below.
# (§2) Compounds of the invention were prepared from powder as 10 mM stock solutions in DMSO and stored in presence of N2 neutral atmosphere at −80° C. For IC50 determination and just before the assay, exemplary compounds were successively diluted to get the following concentrations: 210, 70, 21, 7, 2.1, 0.7, 0.21, 0.07, 0.021, 0.007, 0.0021 and 0.0007 μM (i.e., final concentrations in the wells of 30, 10, 3, 1, 0.3, 0.1, 0.03, 0.01, 0.003, 0.001, 0.0003, 0.0001 μM).
# (§3) Assays were run in clear flat bottom 96-well plates (Nunclon, Cat. No. #167008) adding in each well the following solutions in this order: (1) 10 μl of Tris-HCl solution supplemented with 0.1% bovine serum albumin (BSA) containing 1.563 μg/ml recombinant human ARG1 (R&D System, Cat. No. #5868-AR-010), (2) 30 μl of Tris-HCl buffer containing 10 mM MnCl2 and (3) 10 μL of a pre-dilution of each test article or DMSO (vehicle). Compounds were allowed to interact with the enzyme-cofactor complex pre-incubating the plate at 37° C. for 30 min. To start the reaction, 20 μl of 50 mM L-arginine (Sigma Aldrich Cat. #A5006-100G) were added to each well in exception of the blank reaction (see below). All reactions were allowed to happen for 1 h at 37° C. To detect the urea production, reactions were stopped by adding 200 μl of a mixture of reagent A (4 mM o-phthalaldehyde in 50 mM Boric Acid, 1 M Sulfuric Acid, 0.03% Brij-35 (w/v)) and reagent B (4 mM N-(1-naphthyl)ethylenediamine in 50 mM Boric Acid, 1 M Sulfuric Acid, 0.03% Brij-35 (w/v)) in equal proportion. Color product was developed for 1 h at room temperature (RT) protected from light and then absorbance at 520 nm was measured using a Multifunction Microplate Reader (Synergy 4, Bioteck). Blank reactions were carried out by adding the L-arginine substrate only after the addition of mixture A-B. All reactions were carried out in duplicates.
# (§4) The inhibition of urea production was calculated subtracting the absorbance from the blank reaction (zero enzymatic urea production) to the absorbance from all reactions and it was expressed as the percentage of the absorbance from the reaction containing the test article with respect to the absorbance from vehicle reaction (maximum of urea production).
# [2] = biological target: T2, recombinant human ARG2 (Homo sapiens, UniProt P78540); assay: Arginase enzymatic assay in vitro, recombinant human ARG2 (colorimetric urea detection); settings: recombinant human arginase 2; read-out: IC50 Inh rhARG2
# T2 construct: purchased BPS Bioscience 71659
# T2 sequence (P78540 23-354): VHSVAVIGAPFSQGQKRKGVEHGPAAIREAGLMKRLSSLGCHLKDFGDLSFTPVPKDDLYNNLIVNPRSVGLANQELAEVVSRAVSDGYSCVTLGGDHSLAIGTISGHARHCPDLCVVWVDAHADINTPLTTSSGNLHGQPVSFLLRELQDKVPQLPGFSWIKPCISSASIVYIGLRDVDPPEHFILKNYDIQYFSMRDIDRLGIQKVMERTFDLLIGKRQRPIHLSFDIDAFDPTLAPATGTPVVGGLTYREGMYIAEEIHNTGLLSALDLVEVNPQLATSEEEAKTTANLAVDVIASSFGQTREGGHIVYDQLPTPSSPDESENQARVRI
# From the text: as §1, §2, §3, §4
# For testing inhibitory activity over recombinant human arginase II, 10 μl of Tris-HCl solution supplemented with 0.1% BSA containing 1.5 μg/ml recombinant human ARG2 (BPS Bioscience, Cat. No. #71659) was used instead of ARG1.
# [3] = biological target: T3, native ARG1 enzyme in lysates of RBC (Homo sapiens, UniProt P05089); assay: Arginase enzymatic assay in RBC lysates from healthy donors; settings: human red blood cell lysates; read-out: IC50 Inh RBC
# T3 construct: native ARG1 enzyme in lysates of RBC; from tissue; host or cells: human red blood cell lysates from healthy donors
# T3 sequence (P05089 1-322): T1 sequence (P05089 1-322)
# From the text: as §1, §2, §3, §4
# For testing inhibitory activity over RBC lysates from healthy donors, 10 μl of Tris-HCl solution supplemented with 0.1% BSA containing 160 μg RBC lysates per well was used instead.
Structure (SMILES),IC50 [1] [nM],IC50 [2] [nM],IC50 [3] [nM]
"NC(CCCCB(O)O)(C(=O)O)C1CCN(C2CCc3ccccc32)CC1 (single isomer, unassigned) [Compound 3, 2-amino-6-borono-2-(1-(2,3-dihydro-1H-inden-1-yl)piperidin-4-yl)hexanoic acid]",> 5000,> 5000,> 5000
"NC(CCCCB(O)O)(C(=O)O)C1CCN(C2CCCc3ccccc32)CC1 (single isomer, unassigned) [Compound 6, 2-amino-6-borono-2-(1-(1,2,3,4-tetrahydronaphthalen-1-yl)piperidin-4-yl)hexanoic acid]",> 5000,> 5000,> 5000
"CC(c1ccccc1)N1CCC(C(N)(CCCCB(O)O)C(=O)O)CC1 (single isomer, unassigned) [Compound 11, 2-amino-6-borono-2-(1-(1-phenylethyl)piperidin-4-yl)hexanoic acid]",> 5000,> 5000,> 5000
"NC(CCCCB(O)O)(C(=O)O)C1CCN(C2CCCc3ccc(F)cc32)CC1 (single isomer, unassigned) [Compound 83, 2-amino-6-borono-2-(1-(7-fluoro-1,2,3,4-tetrahydronaphthalen-1-yl)piperidin-4-yl)hexanoic acid]",< 500,< 500,< 500
"NC(CCCCB(O)O)(C(=O)O)C1CCN(C2CCCCc3ccccc32)CC1 (single isomer, unassigned) [Compound 84, 2-amino-6-borono-2-(1-(6,7,8,9-tetrahydro-5H-benzo[7]annulen-5-yl)piperidin-4-yl)hexanoic acid]",< 500,500 to 5000,< 500
"NC(CCCCB(O)O)(C(=O)O)C1CCN(C2CCc3cc(C(F)(F)F)ccc32)CC1 (single isomer, unassigned) [Compound 85, 2-amino-6-borono-2-[1-[5-(trifluoromethyl)indan-1-yl]-4-piperidyl]hexanoic acid]",< 500,< 500,< 500
"NC(CCCCB(O)O)(C(=O)O)C1CCN(C2CCc3ccccc32)CC1 (stereo not drawn) [Compound 1, 2-amino-6-borono-2-(1-(2,3-dihydro-1H-inden-1-yl)piperidin-4-yl)hexanoic acid]",< 500,500 to 5000,< 500
"CC(c1ccccc1)N1CCC(C(N)(CCCCB(O)O)C(=O)O)CC1 (stereo not drawn) [Compound 9, 2-amino-6-borono-2-(1-(1-phenylethyl)piperidin-4-yl)hexanoic acid]",< 500,500 to 5000,< 500
"CC1(C)OB(CCCCC(N)(C(=O)O)C2CCN(C3CCCc4ccccc43)CC2)OC1(C)C (stereo not drawn) [Compound 77, 2-amino-2-(1-(1,2,3,4-tetrahydronaphthalen-1-yl)piperidin-4-yl)-6-(4,4,5,5-tetramethyl-1,3,2-dioxaborolan-2-yl)hexanoic acid]",< 500,500 to 5000,< 500

# More lines, now with the values ahead:
IC50 [1] [nM],IC50 [2] [nM],IC50 [3] [nM],Structure (SMILES)
< 500,< 500,< 500,"NC(CCCCB(O)O)(C(=O)O)C1CCN(C2CCc3ccccc32)CC1 (single isomer, unassigned) [Compound 2, 2-amino-6-borono-2-(1-(2,3-dihydro-1H-inden-1-yl)piperidin-4-yl)hexanoic acid]"
< 500,500 to 5000,< 500,"NC(CCCCB(O)O)(C(=O)O)C1CCN(C2CCCc3ccccc32)CC1 (single isomer, unassigned) [Compound 4, 2-amino-6-borono-2-(1-(1,2,3,4-tetrahydronaphthalen-1-yl)piperidin-4-yl)hexanoic acid]"
< 500,< 500,< 500,"NC(CCCCB(O)O)(C(=O)O)C1CCN(C2CCCc3ccccc32)CC1 (single isomer, unassigned) [Compound 5, 2-amino-6-borono-2-(1-(1,2,3,4-tetrahydronaphthalen-1-yl)piperidin-4-yl)hexanoic acid]"
< 500,< 500,< 500,"CC(c1ccccc1)N1CCC(C(N)(CCCCB(O)O)C(=O)O)CC1 (single isomer, unassigned) [Compound 10, 2-amino-6-borono-2-(1-(1-phenylethyl)piperidin-4-yl)hexanoic acid]"
< 500,< 500,< 500,"NC(CCCCB(O)O)(C(=O)O)C1CCN(C2CCc3cc(Cl)ccc32)CC1 (single isomer, unassigned) [Compound 14, 2-amino-6-borono-2-[1-(5-chloroindan-1-yl)-4-piperidyl]hexanoic acid]"
< 500,< 500,< 500,"NC(CCCCB(O)O)(C(=O)O)C1CCN(C2CCCc3cc(Cl)ccc32)CC1 (single isomer, unassigned) [Compound 17, 2-amino-6-borono-2-(1-(6-chloro-1,2,3,4-tetrahydronaphthalen-1-yl)piperidin-4-yl)hexanoic acid]"
< 500,< 500,< 500,"CNC(CCCCB(O)O)(C(=O)O)C1CCN(C2CCCc3ccccc32)CC1 (single isomer, unassigned) [Compound 79, 6-borono-2-(methylamino)-2-(1-(1,2,3,4-tetrahydronaphthalen-1-yl)piperidin-4-yl)hexanoic acid]"
